Reference: US11723361B2, “Antimicrobial composition having efficacy against endospores” (Next Science IP Holdings Pty Ltd, priority 2015, dated 2023)

Test: Peracetic acid titrations (pH)
Format: physicochemical
Protocol: Two peracetic acid solutions were prepared by adding distilled water to a flask containing peracetic acid. The concentration of one of the solutions was 5% (w/v) while that of the other was 10% (w/v). The calculated effective solute concentrations for these solutions were 1.97 and 3.95 Osm/L, respectively.
To a 50 mL beaker was added 20 mL distilled water. A cleaned, rinsed and dried probe from a calibrated, temperature compensating pH meter was lowered into the beaker. Sequential aliquots of the peracetic acid solution then were added to the beaker, with pH readings after each. The titrations were performed at room temperature.

SMILES: CC(=O)OO [Peracetic acid, peracetic acid]
- pH of water after addition (1 mL (5% by volume) of either 5% or 10% (w/v) solution): below 2
- pH (5% (w/v) solution, 0.25 mL added to 20 mL distilled water, room temperature): 2.42
- pH (5% (w/v) solution, 0.50 mL added to 20 mL distilled water, room temperature): 2.17
- pH (5% (w/v) solution, 0.75 mL added to 20 mL distilled water, room temperature): 2.00
- pH (5% (w/v) solution, 1.00 mL added to 20 mL distilled water, room temperature): 1.89
- pH (5% (w/v) solution, 1.25 mL added to 20 mL distilled water, room temperature): 1.80
- pH (5% (w/v) solution, 1.50 mL added to 20 mL distilled water, room temperature): 1.74
- pH (5% (w/v) solution, 1.75 mL added to 20 mL distilled water, room temperature): 1.68
- pH (5% (w/v) solution, 2.00 mL added to 20 mL distilled water, room temperature): 1.59
- pH (5% (w/v) solution, 2.25 mL added to 20 mL distilled water, room temperature): 1.56
- pH (5% (w/v) solution, 2.50 mL added to 20 mL distilled water, room temperature): 1.53
- pH (5% (w/v) solution, 2.75 mL added to 20 mL distilled water, room temperature): 1.48
- pH (5% (w/v) solution, 3.00 mL added to 20 mL distilled water, room temperature): 1.45
- pH (5% (w/v) solution, 3.25 mL added to 20 mL distilled water, room temperature): 1.42
- pH (5% (w/v) solution, 3.50 mL added to 20 mL distilled water, room temperature): 1.41
- pH (5% (w/v) solution, 3.75 mL added to 20 mL distilled water, room temperature): 1.38
- pH (5% (w/v) solution, 4.00 mL added to 20 mL distilled water, room temperature): 1.34
- pH (5% (w/v) solution, 4.25 mL added to 20 mL distilled water, room temperature): 1.30
- pH (5% (w/v) solution, 4.50 mL added to 20 mL distilled water, room temperature): 1.28
- pH (5% (w/v) solution, 4.75 mL added to 20 mL distilled water, room temperature): 1.26
- pH (5% (w/v) solution, 5.00 mL added to 20 mL distilled water, room temperature): 1.25
- pH (10% (w/v) solution, 0.1 mL added to 20 mL distilled water, room temperature): 2.74
- pH (10% (w/v) solution, 0.2 mL added to 20 mL distilled water, room temperature): 2.48
- pH (10% (w/v) solution, 0.3 mL added to 20 mL distilled water, room temperature): 2.33
- pH (10% (w/v) solution, 0.4 mL added to 20 mL distilled water, room temperature): 2.22
- pH (10% (w/v) solution, 0.5 mL added to 20 mL distilled water, room temperature): 2.14
- pH (10% (w/v) solution, 0.6 mL added to 20 mL distilled water, room temperature): 2.07
- pH (10% (w/v) solution, 0.7 mL added to 20 mL distilled water, room temperature): 2.00
- pH (10% (w/v) solution, 0.8 mL added to 20 mL distilled water, room temperature): 1.95
- pH (10% (w/v) solution, 0.9 mL added to 20 mL distilled water, room temperature): 1.91
- pH (10% (w/v) solution, 1.0 mL added to 20 mL distilled water, room temperature): 1.86
- pH (10% (w/v) solution, 1.1 mL added to 20 mL distilled water, room temperature): 1.83
- pH (10% (w/v) solution, 1.2 mL added to 20 mL distilled water, room temperature): 1.79
- pH (10% (w/v) solution, 1.3 mL added to 20 mL distilled water, room temperature): 1.76
- pH (10% (w/v) solution, 1.4 mL added to 20 mL distilled water, room temperature): 1.73
- pH (10% (w/v) solution, 1.5 mL added to 20 mL distilled water, room temperature): 1.70
- pH (10% (w/v) solution, 1.6 mL added to 20 mL distilled water, room temperature): 1.67
- pH (10% (w/v) solution, 1.7 mL added to 20 mL distilled water, room temperature): 1.65
- pH (10% (w/v) solution, 1.8 mL added to 20 mL distilled water, room temperature): 1.62
- pH (10% (w/v) solution, 1.9 mL added to 20 mL distilled water, room temperature): 1.60
- pH (10% (w/v) solution, 2.0 mL added to 20 mL distilled water, room temperature): 1.58
- asymptotic pH (either 5% or 10% (w/v) acid solution): ~1.1±0.1
- pH (solutions of at least 2.5% (w/v), according to the tabulated data): no more than 1.25
- pH of water after addition (tiny aliquot, less than 1% by volume, of either 5% or 10% (w/v) solution): below 3
